The record followed here is ChEMBL document CHEMBL1201862, “PubChem BioAssay data set” (2004).

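Results reflect a 48-hour exposure of cells in 96-well plates to compound at five concentrations. GI50 marks 50% less growth.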 Active and inactive are the calls of the source. No stated cut-off is given here; in the data, active = GI50 up to about 1.1 µM and inactive = higher.

Among the test systems are 786-0; ACHN; CCRF-CEM; DU-145; HCT-116; HL-60; KM12; MCF7; MDA-MB-435; MDA-N; Malme-3M; OVCAR-3; SK-MEL-28; SK-MEL-5; SNB-19; SNB-75; SW-620; T47D; UACC-257; UO-31.
Common to all, as to assay: inhibition of tumour cell growth, NCI panel, 48 h

As to `O=NNc1cnc(O)nc1O`, the GI50 is > 100 µM (inactive) in the assay with 786-0; > 100 µM (inactive) with ACHN; > 100 µM (inactive) in the assay with CCRF-CEM; > 100 µM (inactive) with DU-145; > 100 µM (inactive) in the assay with HCT-116; 49.3 µM (inactive) in the assay with HL-60. Further, the GI50 in the assay with KM12 was > 100 µM (inactive); in the assay with MCF7, > 100 µM (inactive); in the assay on MDA-MB-435, > 100 µM (inactive); in the assay on MDA-N, > 100 µM (inactive); in the assay with Malme-3M, > 100 µM (inactive); with OVCAR-3 it was 74.8 µM (inactive). For the same molecule, the GI50 in the assay with SK-MEL-28 is > 100 µM (inactive); in the assay with SK-MEL-5, > 100 µM (inactive); with SNB-19, > 100 µM (inactive); in the assay on SNB-75, 8.75 µM (inactive); in the assay on SW-620, > 100 µM (inactive); with T47D, > 100 µM (inactive). Further, the GI50 with UACC-257 and in the assay on UO-31 was > 100 µM (inactive) in each case.

Turning to `CC1=C(C)CC2C(=O)N(c3cc(C(C)(C)C)ccc3C(C)(C)C)C(=O)C2C1` (stereo not given), the GI50 in the assay with 786-0 was 64.9 µM (inactive); with ACHN it was 5.38 µM (inactive); in the assay on CCRF-CEM, > 100 µM (inactive); with DU-145 it was > 100 µM (inactive); in the assay on HCT-116, 50 µM (inactive); in the assay on HL-60, > 100 µM (inactive). In addition, the GI50 in the assay with KM12 was > 100 µM (inactive); in the assay on MCF7, 0.776 µM (active); in the assay on MDA-MB-435 it was > 100 µM (inactive); with MDA-N, > 100 µM (inactive); in the assay on Malme-3M, 4.55 µM (inactive); in the assay on OVCAR-3, 66.2 µM (inactive). The GI50 with SK-MEL-28 is > 100 µM (inactive); in the assay with SK-MEL-5, > 100 µM (inactive); in the assay with SNB-19, 23.1 µM (inactive); with SNB-75 it was 22.3 µM (inactive); in the assay with SW-620, > 100 µM (inactive); in the assay on T47D, > 100 µM (inactive). The GI50 in the assay with UACC-257 and with UO-31 was > 100 µM (inactive) each time.

Consider `C=C1[C@H](OC(=O)C(C)C)[C@]23CC4(O)[C@@H]5[C@@]6(C)CCC[C@]57C([C@@H]2C[C@@]1(O)[C@H](O)[C@@H]73)N4C6`, for which the GI50 with 786-0 was > 100 µM (inactive); with ACHN, 72.8 µM (inactive); in the assay with CCRF-CEM, > 100 µM (inactive); in the assay with DU-145, > 100 µM (inactive); in the assay with HCT-116 it was > 100 µM (inactive); with HL-60, > 100 µM (inactive). In addition, the GI50 in the assay with KM12, in the assay with MCF7, in the assay with MDA-MB-435, in the assay on MDA-N, with Malme-3M and with OVCAR-3 was > 100 µM (inactive) in each case. Moreover, the GI50 in the assay with SK-MEL-28, in the assay with SK-MEL-5, in the assay with SNB-19, in the assay on SNB-75, with SW-620 and in the assay on T47D was > 100 µM (inactive) throughout. The GI50 with UACC-257 and in the assay with UO-31 was > 100 µM (inactive) each time.

Take `Cc1ccc(-c2nc(N/N=C/c3ccc(O)cc3)c3ccccc3n2)cc1`: the GI50 was 22.8 µM (inactive) with 786-0; 7.21 µM (inactive) in the assay on ACHN; 15.8 µM (inactive) with CCRF-CEM; 21.8 µM (inactive) in the assay on DU-145; 14.1 µM (inactive) with HCT-116; 17.2 µM (inactive) with HL-60. Also, the GI50 in the assay with KM12 is 13.5 µM (inactive); in the assay with MCF7, 10.2 µM (inactive); in the assay on MDA-MB-435, 10.8 µM (inactive); in the assay on MDA-N it was 7.87 µM (inactive); with Malme-3M, 13.8 µM (inactive); in the assay with OVCAR-3, 4.29 µM (inactive). The GI50 was 17.8 µM (inactive) in the assay with SK-MEL-28; 3.51 µM (inactive) in the assay with SK-MEL-5; 26.6 µM (inactive) in the assay on SNB-19; 16.8 µM (inactive) in the assay with SNB-75; 19 µM (inactive) in the assay with SW-620; 5.22 µM (inactive) with T47D. The results for the GI50 with UACC-257 and in the assay with UO-31 were 4.06 µM (inactive) and 5.47 µM (inactive), respectively.

Turning to `CN(C)Cc1cc(/N=N/c2ccccc2Cl)cc(CN(C)C)c1O`, the GI50 with 786-0 is 76.9 µM (inactive); in the assay on ACHN it was > 100 µM (inactive); in the assay with CCRF-CEM, 25.6 µM (inactive); in the assay on DU-145, > 100 µM (inactive); with HCT-116 it was 53 µM (inactive); in the assay with HL-60, 20.8 µM (inactive). Also, the GI50 is 77.6 µM (inactive) with KM12; > 100 µM (inactive) in the assay on MCF7; 34.4 µM (inactive) in the assay with MDA-MB-435; 29.2 µM (inactive) in the assay with MDA-N; > 10 µM (inactive) with Malme-3M; 21.4 µM (inactive) with OVCAR-3. In addition, the GI50 with SK-MEL-28 was 18.5 µM (inactive); with SK-MEL-5 it was 18.2 µM (inactive); in the assay on SNB-19 it was > 100 µM (inactive); with SNB-75, 56.4 µM (inactive); with SW-620, 90.2 µM (inactive); in the assay with T47D, > 100 µM (inactive). Also, the GI50 with UACC-257 is 20.1 µM (inactive); in the assay with UO-31 it was 23.3 µM (inactive).

Consider `CC1(C)C[C@H](O)[C@H](O)[C@]23C(=O)O[C@H](O)[C@H]2C(C=O)=CC[C@@H]13`, for which the GI50 in the assay on 786-0, in the assay on ACHN, with CCRF-CEM, in the assay on DU-145, with HCT-116 and in the assay with HL-60 was > 100 µM (inactive) throughout. The GI50 in the assay with KM12, in the assay with MCF7, with MDA-MB-435, with MDA-N, in the assay on Malme-3M and with OVCAR-3 was > 100 µM (inactive) throughout. The GI50 with SK-MEL-28 is > 100 µM (inactive); in the assay with SK-MEL-5, > 100 µM (inactive); in the assay on SNB-19, > 100 µM (inactive); in the assay on SNB-75, > 100 µM (inactive); with SW-620, > 100 µM (inactive); in the assay with T47D it was 73.1 µM (inactive). Also, the GI50 in the assay on UACC-257 and in the assay with UO-31 was > 100 µM (inactive) in each case.

As to `BrC(Br)=C1C(=C(Br)Br)C(Br)C1Br` (stereo not given), the GI50 with 786-0 is 0.163 µM (active); in the assay with ACHN it was 0.152 µM (active); in the assay with CCRF-CEM it was 0.0989 µM (active); in the assay on DU-145 it was 0.106 µM (active); in the assay with HCT-116 it was 0.302 µM (active); in the assay with HL-60, < 0.0125 µM (active). The GI50 in the assay with KM12 is 0.61 µM (active); in the assay on MCF7, 0.193 µM (active); in the assay with MDA-MB-435, 0.927 µM (active); in the assay on MDA-N, 0.368 µM (active); in the assay with Malme-3M, 0.418 µM (active); with OVCAR-3 it was 0.794 µM (active). In addition, the GI50 is 1.1 µM (active) in the assay with SK-MEL-28; 0.826 µM (active) in the assay with SK-MEL-5; 1.95 µM (inactive) in the assay on SNB-19; 1.69 µM (inactive) with SNB-75; 0.207 µM (active) in the assay with SW-620; 1.76 µM (inactive) with T47D. The GI50 in the assay with UACC-257 was 1.75 µM (inactive); in the assay on UO-31 it was 0.701 µM (active).

Take `Cc1ccc(S(=O)(=O)NN=C2C(C)(C)CC2(C)C)cc1`: the GI50 in the assay with 786-0 is > 100 µM (inactive); in the assay on ACHN it was > 100 µM (inactive); with CCRF-CEM, 68.7 µM (inactive); in the assay on DU-145, > 100 µM (inactive); in the assay on HCT-116, > 100 µM (inactive); in the assay on HL-60, > 100 µM (inactive). Also, the GI50 with KM12, with MCF7, in the assay on MDA-MB-435, in the assay on MDA-N, with Malme-3M and with OVCAR-3 was > 100 µM (inactive) throughout. The GI50 is > 100 µM (inactive) in the assay on SK-MEL-28; > 100 µM (inactive) in the assay with SK-MEL-5; > 100 µM (inactive) in the assay with SNB-19; 17.3 µM (inactive) in the assay with SNB-75; > 100 µM (inactive) in the assay with SW-620; > 100 µM (inactive) in the assay on T47D. The GI50 with UACC-257 and in the assay on UO-31 was > 100 µM (inactive) throughout.

As to `Cc1cccc(/C=N/NC(=S)NC2CCCCC2)n1`, the GI50 in the assay with 786-0 is 20 µM (inactive); with ACHN, 25.8 µM (inactive); with CCRF-CEM it was 1.14 µM (inactive); in the assay on DU-145, 29.6 µM (inactive); with HCT-116, 4.02 µM (inactive); in the assay on HL-60, 2.86 µM (inactive). In addition, the GI50 in the assay on KM12 was 31.1 µM (inactive); in the assay with MCF7 it was 11.4 µM (inactive); in the assay with MDA-MB-435, 33.7 µM (inactive); in the assay with MDA-N it was 28.4 µM (inactive); in the assay with Malme-3M it was 16.2 µM (inactive); in the assay on OVCAR-3, 3.7 µM (inactive). The GI50 is 46.7 µM (inactive) in the assay with SK-MEL-28; 29.9 µM (inactive) in the assay on SK-MEL-5; 34.8 µM (inactive) in the assay on SNB-19; 45.3 µM (inactive) in the assay on SNB-75; 9.25 µM (inactive) with SW-620; 2.58 µM (inactive) in the assay with T47D. Also, the GI50 in the assay on UACC-257 is 17.3 µM (inactive); with UO-31 it was 18.7 µM (inactive).

For the molecule `COC(=O)C1=C(C(=O)OC)C2(/N=C(\Nc3ccccc3)c3ccccc3)N(c3ccc(OC)cc3)CC(c3ccccc3)N2O1` (stereo not given), the GI50 in the assay on 786-0, with ACHN, with CCRF-CEM, with DU-145, in the assay on HCT-116 and with HL-60 was > 100 µM (inactive) each time. Further, the GI50 with KM12, in the assay on MCF7, in the assay with MDA-MB-435, in the assay on MDA-N, in the assay on Malme-3M and in the assay with OVCAR-3 was > 100 µM (inactive) each time. Besides, the GI50 in the assay on SK-MEL-28 was > 100 µM (inactive); in the assay on SK-MEL-5, > 100 µM (inactive); in the assay on SNB-19, > 100 µM (inactive); with SNB-75, 32.3 µM (inactive); in the assay with SW-620, > 100 µM (inactive); in the assay on T47D, > 100 µM (inactive). The GI50 in the assay with UACC-257 and in the assay with UO-31 was > 100 µM (inactive) throughout.
